Laboratory results taken from patent US6794406B2, “Indole derivatives” (Bayer Aktiengesellschaft, priority 2000, dated 2004).

tested on: luciferase gene under the control of a thyroid hormone-regulated promoter (TRE) in HepG2 hepatocarcinoma cell; assay: T3 promoter assay cell test; format: cell-based; conditions: stably transfected human HepG2 cells; luciferase induction; incubated 48 or 72 hours with costimulator retinolic acid; four replicates
Procedure: The efficacy of the compounds according to the invention can be tested, for example, in vitro by the T3 promoter assay cell test described below:
The test is carried out using a stably transfected, human HepG2 hepatocarcinoma cell which expresses a luciferase gene under the control of a thyroid hormone-regulated promoter. The vector used for the transfection carries, ahead of the luciferase gene, a minimal thymidine kinase promoter having a thyroid hormone-responsive element (TRE), which consists of two inverted palindromes of 12 Bp each and an 8 Bp spacer.
For the test, the cell cultures are inoculated into 96 well plates in Eagle's Minimal Essential Medium with the following additives: glutamine, tricine [N-(tris(hydroxymethyl)methyl)glycine], sodium pyruvate, non-essential amino acids (L-Ala, L-Asn, L-Asp, L-Pro, L-Ser, L-Glu, Gly), insulin, selenium and transferrin. The cultures are grown for 48 hours at 37° C. and under a 10% CO2 atmosphere. Serial dilutions of test substance or reference compound (T3, T4) and costimulator retinolic acid are then added to the test cultures and these are incubated as beforehand for a further 48 or 72 hours. Each substance concentration is tested in four replicates. For the determination of the luciferase induced by T3 or other substances, the cells are then lysed by addition of a Triton- and luciferin-containing buffer (from Promega) and immediately measured luminometrically. The EC50 values of each compound are calculated.

SMILES | EC50
Cc1cc(NCC(=O)O)cc(C)c1Oc1ccc2[nH]cc(C(C)C)c2c1 [Example 5, N-{4-[(3-Isopropyl-1H-indol-5-yl)oxy]-3,5-dimethylphenyl}glycine] | 22 nM
Cc1cc(NC(=O)CC(=O)O)cc(Cl)c1Oc1ccc2[nH]cc(C(C)C)c2c1 [Example 6, 3-({3-Chloro-4-[(3-isopropyl-1H-indol-5-yl)oxy]-5-methylphenyl}amino)-3-oxo-propionic acid] | 8 nM
CC(C)c1c[nH]c2ccc(Oc3c(C(F)(F)F)cc(CC(=O)O)cc3C(F)(F)F)cc12 [Example 11, 4-(3-Isopropyl-1H-indol-5-yloxy)-3,5-bis-trifluoromethylphenylacetic acid] | 0.5 nM
CC(C)c1c[nH]c2ccc(Oc3c(C(F)(F)F)cc(CCC(=O)O)cc3C(F)(F)F)cc12 [Example 15, 4-(3-Isopropyl-1H-indol-5-yloxy)-3,5-bis-trifluoromethylphenylpropionic acid] | 4 nM
Cc1cc(OCC(=O)O)cc(C)c1Oc1ccc2[nH]cc(C(C)C)c2c1 [Example 16, {4-[(3-Isopropyl-1H-indol-5-yl)oxy]-3,5-dimethylphenoxy}acetic acid] | 21 nM
